Assay results: article PMC10175918 (Communications Biology, 2023)
Values joined by “and” are separate entries in the source; they are usually repeats but may differ in a detail not shown here. Equal entries are not always repeated.

Experiments:
[1] = test system: UTS2R A249G; assay: TGFα-shedding assay on UTS2R SNV mutant A249G; assay type: cell-based, human; conditions: cutoff value set to −1, single replicates
[2] = test system: UTS2R V159M; assay: TGFα-shedding assay on UTS2R SNV mutant V159M; assay type: cell-based, human; conditions: cutoff value set to −1, single replicates
[3] = test system: UTS2R M134A; assay: TGFα-shedding assay on UTS2R mutant M134A; assay type: cell-based, human; conditions: cutoff value set to −1, single replicates
[4] = test system: UTS2R G68C; assay: TGFα-shedding assay on UTS2R SNV mutant G68C; assay type: cell-based, human; conditions: cutoff value set to −1, single replicates
[5] = test system: mitochondrial respiratory complex proteins; assay: Western blot of mitochondrial respiratory complex proteins in UTS2R-transfected HEK293A cells; assay type: cell-based, human; conditions: 10 μM remdesivir, 48 h
[6] = target: T1, FLAG-UTS2R (Homo sapiens, UniProt Q9UKP6); assay: Competitive binding assay: biotin-UT2 pulldown of FLAG-UTS2R from HEK293 membrane fraction; conditions: membrane fraction of HEK293 cells expressing FLAG-UTS2R, streptavidin beads, western blot
T1 construct: expressed in transfected cells; host or cells: HEK293
Method: HEK293 cells were transfected with the plasmid encoding FLAG-UTS2R and were serum-starved for 6 h before experimentation. Cells were washed twice with ice-cold PBS. Hypotonic solution (50 mM HEPES, pH 7.5 with protease inhibitor cocktails) was added to the cell plate, and the cells were harvested by scraping. Cells were homogenized using a dounce homogenizer (IKA EUROSTAR 20 digital) at 2,000 rpm for 20 strokes at 4 °C, and further homogenized using a tissue rupture (Qiagen) for 5 s at 4 °C. The homogenate was centrifuged at 800 x g for 10 min at 4 °C to remove unbroken cells and the nucleus. The supernatant was further centrifuged at 30,000×g for 30 min at 4° (CP80NX, himac). The resulting pellet was used as crude membrane fraction and was suspended in hyperosmotic solution (50 mM HEPES, pH 7.5, 250 mM NaCl, 2 mM EDTA with protease inhibitor).
The biotin-UT2-bound UTS2R complex was solubilized using a hyperosmotic buffer containing detergent (N-Dodecyl-β-D-maltopyranoside; DDM, 5× CMC) and pulled down using streptavidin magnetic beads. The suitable beads for the experiment were selected from 5 types (Supplementary Fig. 1d, Dynabeads Streptavidin Trial Kit, Thermo Fisher, and Streptavidin magnetic beads, NEB) and denatured with SDS buffer. […]

[7] = cited from earlier work
[8] = target: T2, UTS2R (β-arrestin 2 recruitment) (Homo sapiens, UniProt Q9UKP6); assay: NanoBiT β-arrestin 2 recruitment assay for UTS2R; assay type: cell-based; conditions: β-arrestin 2, Supplementary Fig. 1b
T2 construct: expressed in transfected cells; host or cells: HEK293A

[9] = test system: adult mouse cardiomyocytes; assay: Contractility under pacing of adult mouse cardiomyocytes; assay type: cell-based; conditions: 10 µM remdesivir, 30 min
Method: C57BL/6J mice for the isolation of adult mouse cardiomyocytes were purchased from Japan SLC Inc. (Shizuoka, Japan). Isolation of adult mouse ventricular cardiomyocytes was performed. Male mice were anesthetized by inhalation with isoflurane. The heart was quickly excised, and the aorta was clamped with a small vascular clamp. The heart was antegradely perfused with isolation buffer (less than 3 mL) containing 130 mM NaCl, 5.4 mM KCl, 0.5 mM MgCl2, 0.33 mM NaH2PO4, 25 mM HEPES, 22 mM glucose, and 50 μU/mL bovine insulin (Sigma) (pH 7.4, adjusted with NaOH) supplemented with 0.4 mM EGTA, followed by the perfusion of enzyme solution (10 mL) (isolation buffer containing 1 mg/mL collagenase type 2 (Worthington), 0.06 mg/mL trypsin (Sigma), 0.06 mg/mL protease (Sigma), and 0.3 mM CaCl2). Thereafter, the LV chamber was removed and cut into small pieces in an enzyme solution containing 0.2% bovine serum albumin (BSA) and 0.7 mM CaCl2. The tissue-cell suspension was filtered through a cell strainer (100 μm, Falcon) and centrifuged for 3 min at 50×g. After removing the supernatant, the cell pellet was resuspended in isolation buffer supplemented with 0.2% BSA and 1.2 mM CaCl2 and incubated for 7 min at 37 °C. […]
Microscopic images of cardiomyocytes were recorded for 13 seconds under pacing conditions. […] Imaging data were analyzed using Fiji software.

T1 sequence (Q9UKP6 whole entry): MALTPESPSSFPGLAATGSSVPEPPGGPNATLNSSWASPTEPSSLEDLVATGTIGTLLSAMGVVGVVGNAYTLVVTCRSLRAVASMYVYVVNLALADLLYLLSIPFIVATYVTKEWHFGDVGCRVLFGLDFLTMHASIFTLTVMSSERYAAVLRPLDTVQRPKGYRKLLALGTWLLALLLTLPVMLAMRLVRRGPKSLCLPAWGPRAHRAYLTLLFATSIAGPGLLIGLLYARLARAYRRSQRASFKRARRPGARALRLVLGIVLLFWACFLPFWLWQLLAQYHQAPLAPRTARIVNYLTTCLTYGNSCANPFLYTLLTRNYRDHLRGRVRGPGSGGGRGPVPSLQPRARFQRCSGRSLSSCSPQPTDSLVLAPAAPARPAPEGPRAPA
T2 sequence (Q9UKP6 whole entry): as above

With `CCC(CC)COC(=O)[C@H](C)N[P@](=O)(OC[C@H]1O[C@@](C#N)(c2ccc3c(N)ncnn23)[C@H](O)[C@@H]1O)Oc1ccccc1` [remdesivir] the “⊿pEC50 compared to WT UTS2R” value [1] was > 0.3 and 0.2782 and 0.2736 and 0.3671 and 0.2913, the “⊿pEC50 compared to WT UTS2R” value [2] was > 0.3 and 0.3136 and 0.3109 and 0.3308 and 0.4558 and the “⊿pEC50 compared to WT UTS2R” value [3] was -1. The “⊿pEC50 compared to WT UTS2R” value [4] was > 0.3 and 0.5256 and 0.7054 and 0.6735 and 0.5172, the “steady-state levels of mitochondrial respiratory complex proteins” value [5] was “did not affect” and the “biotin–UT2-mediated UTS2R pulldown” value [6] was “significantly impaired”. For the same molecule, the “patients showing arrhythmias (other than atrial fibrillation, supraventricular tachycardia, ventricular tachycardia, ventricular fibrillation)” value ([7]; ACTT-1 trial, patients receiving remdesivir) was 0.2 % of patients, the “time to resolution of cardiac adverse effects after discontinuing remdesivir” value [7] was 24 to 48 h and the β-arrestin recruitment response [8] was “failed to induce a β-arrestin recruitment response”. The “contraction of adult cardiomyocytes” value [9] was “significantly impaired the contraction”.
